Test results from ChEMBL document CHEMBL1201862, “PubChem BioAssay data set” (2004).
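All cell lines were grown in 96-well plates and treated with compound for 48 hours. GI50 is the concentration that inhibits growth by half.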 The source made the active and inactive calls. Cut-off read from the data, not from the text of the source: active = GI50 up to about 1.1 µM and inactive = higher.

How the values were obtained:
Experiment in all cases: NCI anticancer screen, dose series, 48 h
[1] = test system: LOX IMVI
[2] = test system: A549
[3] = test system: OVCAR-3
[4] = test system: SK-MEL-5
[5] = test system: KM12
[6] = test system: SF-268
[7] = test system: NCI-H460
[8] = test system: EKVX
[9] = test system: UACC-62
[10] = test system: MOLT-4
[11] = test system: UO-31
[12] = test system: K562
[13] = test system: OVCAR-8
[14] = test system: HCT-15
[15] = test system: SNB-19
[16] = test system: Malme-3M
[17] = test system: HL-60
[18] = test system: HT-29
[19] = test system: SF-539
[20] = test system: UACC-257

O=C1c2ccccc2N1C(=O)c1ccccc1[N+](=O)[O-]
GI50 [1]: 32.1 µM (inactive) | GI50 [2]: 45.2 µM (inactive) | GI50 [3]: 18.6 µM (inactive) | GI50 [4]: 51.8 µM (inactive) | GI50 [5]: 50 µM (inactive) | GI50 [6]: 39.9 µM (inactive) | GI50 [7]: > 100 µM (inactive) | GI50 [8]: > 100 µM (inactive) | GI50 [9]: > 100 µM (inactive) | GI50 [10]: > 100 µM (inactive) | GI50 [11]: > 100 µM (inactive) | GI50 [12]: > 100 µM (inactive) | GI50 [13]: 25.1 µM (inactive) | GI50 [14]: 44.2 µM | GI50 [15]: > 100 µM (inactive) | GI50 [16]: 29.6 µM (inactive) | GI50 [17]: > 10 µM (inactive) | GI50 [18]: 88.1 µM (inactive) | GI50 [19]: 32.2 µM (inactive) | GI50 [20]: > 100 µM (inactive)

Cc1cc(NS(=O)(=O)c2ccc(NC(=O)c3cccc4c(Nc5ccc(S(N)(=O)=O)cc5)c5ccccc5nc34)cc2)no1
GI50 [1]: 70.3 µM (inactive) | GI50 [3]: 76.2 µM (inactive) | GI50 [5]: 57 µM (inactive) | GI50 [6]: > 100 µM (inactive) | GI50 [7]: > 100 µM (inactive) | GI50 [8]: 96.8 µM (inactive) | GI50 [9]: > 100 µM (inactive) | GI50 [10]: > 100 µM (inactive) | GI50 [11]: 35.6 µM (inactive) | GI50 [12]: 98.2 µM (inactive) | GI50 [14]: > 100 µM | GI50 [15]: 97.3 µM (inactive) | GI50 [16]: > 100 µM (inactive) | GI50 [17]: > 100 µM (inactive) | GI50 [18]: > 100 µM (inactive) | GI50 [19]: 73.6 µM (inactive) | GI50 [20]: > 100 µM (inactive)

CC(=O)ON1C(=O)c2cccc3cccc(c23)C1=O
GI50 [1]: 14.2 µM (inactive) | GI50 [2]: 23.2 µM (inactive) | GI50 [3]: 19.5 µM (inactive) | GI50 [4]: 13.2 µM (inactive) | GI50 [5]: 14.6 µM (inactive) | GI50 [6]: 22.6 µM (inactive) | GI50 [7]: 7.93 µM (inactive) | GI50 [8]: 28.1 µM (inactive) | GI50 [9]: 19.9 µM (inactive) | GI50 [10]: 15.6 µM (inactive) | GI50 [11]: 6.27 µM (inactive) | GI50 [12]: 20.1 µM (inactive) | GI50 [13]: 27.1 µM (inactive) | GI50 [14]: 18 µM | GI50 [15]: 36.8 µM (inactive) | GI50 [16]: 20 µM (inactive) | GI50 [17]: 10.9 µM (inactive) | GI50 [18]: 27.2 µM (inactive) | GI50 [19]: 16.4 µM (inactive) | GI50 [20]: 23.8 µM (inactive)

NC(=O)Oc1ccccc1 [CARBAMIC ACID PHENYL ESTER]
GI50 [1]: > 100 µM (inactive) | GI50 [2]: > 100 µM (inactive) | GI50 [3]: > 100 µM (inactive) | GI50 [4]: > 100 µM (inactive) | GI50 [5]: > 100 µM (inactive) | GI50 [6]: > 100 µM (inactive) | GI50 [7]: > 100 µM (inactive) | GI50 [10]: > 100 µM (inactive) | GI50 [11]: > 100 µM (inactive) | GI50 [12]: > 100 µM (inactive) | GI50 [13]: > 100 µM (inactive) | GI50 [14]: > 100 µM | GI50 [15]: > 100 µM (inactive) | GI50 [17]: > 100 µM (inactive) | GI50 [18]: > 100 µM (inactive) | GI50 [20]: > 100 µM (inactive)

O=C(NO)c1coc2ccccc2c1=O
GI50 [1]: > 100 µM (inactive) | GI50 [2]: > 100 µM (inactive) | GI50 [4]: > 100 µM (inactive) | GI50 [5]: > 100 µM (inactive) | GI50 [6]: 91.2 µM (inactive) | GI50 [8]: > 100 µM (inactive) | GI50 [9]: > 100 µM (inactive) | GI50 [10]: > 100 µM (inactive) | GI50 [11]: 86.9 µM (inactive) | GI50 [12]: > 100 µM (inactive) | GI50 [13]: > 100 µM (inactive) | GI50 [14]: > 100 µM | GI50 [15]: 84.9 µM (inactive) | GI50 [16]: 88.9 µM (inactive) | GI50 [17]: 75.2 µM (inactive) | GI50 [18]: > 100 µM (inactive) | GI50 [19]: 78.5 µM (inactive) | GI50 [20]: > 100 µM (inactive)

CC(C)(C)OC(=O)NCC(=O)NC1c2ccsc2/C(=N/O)[C@H]1O (some centres not stated)
GI50 [1]: > 100 µM (inactive) | GI50 [2]: > 100 µM (inactive) | GI50 [3]: > 100 µM (inactive) | GI50 [4]: > 100 µM (inactive) | GI50 [7]: > 100 µM (inactive) | GI50 [8]: > 100 µM (inactive) | GI50 [9]: > 100 µM (inactive) | GI50 [10]: > 100 µM (inactive) | GI50 [11]: > 100 µM (inactive) | GI50 [12]: 5.28 µM (inactive) | GI50 [13]: > 100 µM (inactive) | GI50 [14]: > 100 µM | GI50 [15]: > 100 µM (inactive) | GI50 [16]: > 100 µM (inactive) | GI50 [17]: > 100 µM (inactive) | GI50 [18]: > 100 µM (inactive) | GI50 [19]: > 100 µM (inactive) | GI50 [20]: > 100 µM (inactive)

Cc1ccc(NC(=O)c2cccc([N+](=O)[O-])c2O)c(C)c1
GI50 [1]: 11.9 µM (inactive) | GI50 [2]: 15.9 µM (inactive) | GI50 [3]: 5.7 µM (inactive) | GI50 [5]: 27.7 µM (inactive) | GI50 [6]: 34.8 µM (inactive) | GI50 [7]: 26.4 µM (inactive) | GI50 [8]: 17.1 µM (inactive) | GI50 [9]: 4.03 µM (inactive) | GI50 [10]: 19.3 µM (inactive) | GI50 [11]: 3.31 µM (inactive) | GI50 [12]: 21 µM (inactive) | GI50 [13]: 22.9 µM (inactive) | GI50 [15]: 24.2 µM (inactive) | GI50 [16]: 1.7 µM (inactive) | GI50 [17]: 17.2 µM (inactive) | GI50 [18]: 29.4 µM (inactive) | GI50 [19]: 14.5 µM (inactive) | GI50 [20]: 14 µM (inactive)
